In patent US9216169B2, “Pharmaceutical composition comprising candesartan or ester thereof and chlortalidone, and use thereof” (TIANJIN INSTITUTE OF PHARMACEUTICAL RESEARCH, priority 2011, dated 2015):

Test system: Spontaneously hypertensive rats (SHR)
Assay: SBP of SHR by Tail-Cuff method, continuous intragastric administration for 8 days (Examples 1-7)
Assay type: in vivo, rat
Method: Spontaneously hypertensive rats (SHR), male, are provided by Beijing Vital River Laboratory Animal Technology Co., Ltd. The number of animal production license is SCXK (Jing) 2007-0001. Animals are raised in an observation room at the room temperature of 25±2° C. controlled by central air-conditioning system and with artificial lighting of 12 h/day. The animals are raised in separate cages sized 43×27×18 cm with 4 animals for each cage. The rats are free access to water and are fed with block fodder everyday, and the water supply is refreshed once a day. The temperature of the room for measuring the blood pressure is 26±2° C.
The blood pressure is measured by Tail-Cuff method and the hear rate is measured according to the pulse frequency. Animals are pre-trained for the blood pressure measurement for more than 2 weeks so as to adapt to the environment of measurement. Animals are placed in a isothermal bag at 37° C. to be prewarmed for 5 to 10 min for formal measurement. Blood pressures of the rats are measured from tail arteries for 2 to 3 times at rest states, and an average value is taken as each blood pressure measured value. All data are collected and preserved by a computer.
SHRs with systolic blood pressures (SBPs) >190 mmHg are selected for experiment.
Rats are randomly divided into 14 groups according to their blood pressures with each group having 7 rats. Animals are fasted overnight and measured for the blood pressure of pre-administration at the day of experiment, and then administered drugs in accordance with the following method:
The single-drug group is intragastrically administered candesartan (Can) or chlorthalidone (Chl), with the dosage of Can of 0.36 mg/kg and the dosages of Chl of 0.0675, 0.36, 0.54, 0.72, 1.125 and 2.25 mg/kg respectively;
The pharmaceutical composition is administered with 6 different doses (denoted by F1, F2, F3, F4, F5 and F6 respectively). Specifically, the ratios of the dosages of Can+Chl in all pharmaceutical compositions are:
The administration volumes are all 5 ml/kg.
Rats are continuously administered for 8 days. SBPs are measured 2, 4, 8, 12 and 24 hours after the last administration. The area under blood pressure reduction-time curve from 0 to 24 h (AUC0-24) and the maximum blood pressure reduction value are calculated.
The calculated results are expressed as mean±standard error ( x±SE); statistical treatment is performed using unpaired t test between groups to compare the significance of the average difference; the interaction between drugs are determined by using factorial analysis of variance, and P<0.05 means the difference has statistical significance.

[1] = Chl 0.0675 mg/kg i.g. 8 days, 2 h after last administration
[2] = Chl 0.0675 mg/kg i.g. 8 days, 4 h after last administration
[3] = Chl 0.0675 mg/kg i.g. 8 days, 8 h after last administration
[4] = Chl 0.0675 mg/kg i.g. 8 days, 12 h after last administration
[5] = Chl 0.0675 mg/kg i.g. 8 days, 24 h after last administration
[6] = Chl 0.0675 mg/kg i.g. 8 days, pre-administration
[7] = Chl 0.36 mg/kg i.g. 8 days (Table 2), 2 h after last administration
[8] = Chl 0.36 mg/kg i.g. 8 days (Table 2), 4 h after last administration
[9] = Chl 0.36 mg/kg i.g. 8 days (Table 2), 8 h after last administration
[10] = Chl 0.36 mg/kg i.g. 8 days (Table 2), 12 h after last administration
[11] = Chl 0.36 mg/kg i.g. 8 days (Table 2), 24 h after last administration
[12] = Chl 0.36 mg/kg i.g. 8 days (Table 2), pre-administration
[13] = Chl 1.125 mg/kg i.g. 8 days, 2 h after last administration
[14] = Chl 1.125 mg/kg i.g. 8 days, 4 h after last administration
[15] = Chl 1.125 mg/kg i.g. 8 days, 8 h after last administration
[16] = Chl 1.125 mg/kg i.g. 8 days, 12 h after last administration
[17] = Chl 1.125 mg/kg i.g. 8 days, 24 h after last administration
[18] = Chl 1.125 mg/kg i.g. 8 days, pre-administration
[19] = Chl 2.25 mg/kg i.g. 8 days, 2 h after last administration
[20] = Chl 2.25 mg/kg i.g. 8 days, 4 h after last administration
[21] = Chl 2.25 mg/kg i.g. 8 days, 8 h after last administration
[22] = Chl 2.25 mg/kg i.g. 8 days, 12 h after last administration
[23] = Chl 2.25 mg/kg i.g. 8 days, 24 h after last administration
[24] = Chl 2.25 mg/kg i.g. 8 days, pre-administration
[25] = Chl, dosage 0.36 mg/kg in Table 3 (Example 3 title: 0.54 mg/kg), i.g. 8 days, 2 h after last administration
[26] = Chl, dosage 0.36 mg/kg in Table 3 (Example 3 title: 0.54 mg/kg), i.g. 8 days, 4 h after last administration
[27] = Chl, dosage 0.36 mg/kg in Table 3 (Example 3 title: 0.54 mg/kg), i.g. 8 days, 8 h after last administration
[28] = Chl, dosage 0.36 mg/kg in Table 3 (Example 3 title: 0.54 mg/kg), i.g. 8 days, 12 h after last administration
[29] = Chl, dosage 0.36 mg/kg in Table 3 (Example 3 title: 0.54 mg/kg), i.g. 8 days, 24 h after last administration
[30] = Chl, dosage 0.36 mg/kg in Table 3 (Example 3 title: 0.54 mg/kg), i.g. 8 days, pre-administration
[31] = Chl, dosage 0.36 mg/kg in Table 4 (Example 4 title: 0.72 mg/kg), i.g. 8 days, 2 h after last administration
[32] = Chl, dosage 0.36 mg/kg in Table 4 (Example 4 title: 0.72 mg/kg), i.g. 8 days, 4 h after last administration
[33] = Chl, dosage 0.36 mg/kg in Table 4 (Example 4 title: 0.72 mg/kg), i.g. 8 days, 8 h after last administration
[34] = Chl, dosage 0.36 mg/kg in Table 4 (Example 4 title: 0.72 mg/kg), i.g. 8 days, 12 h after last administration
[35] = Chl, dosage 0.36 mg/kg in Table 4 (Example 4 title: 0.72 mg/kg), i.g. 8 days, 24 h after last administration
[36] = Chl, dosage 0.36 mg/kg in Table 4 (Example 4 title: 0.72 mg/kg), i.g. 8 days, pre-administration

NS(=O)(=O)c1cc(C2(O)NC(=O)c3ccccc32)ccc1Cl (centres unmarked) [Chl, Chlorthalidone]
antihypertensive effect after the administration (Chl 0.0675 mg/kg): no significant antihypertensive effect
AUC0-24h (area under blood pressure reduction-time curve) (Chl 0.0675 mg/kg i.g. 8 days): −9.0 mmHg · h
maximum reduction of the blood pressure (Chl 0.0675 mg/kg i.g. 8 days): −4.7 mmHg
SBP [1]: 203 mmHg
SBP difference value compared with the basic value [1]: (−2.1 mmHg
SBP [2]: 206 mmHg
SBP difference value compared with the basic value [2]: (0.6 mmHg
SBP [3]: 204 mmHg
SBP difference value compared with the basic value [3]: (−1.4 mmHg
SBP [4]: 203 mmHg
SBP difference value compared with the basic value [4]: (−2.0 mmHg
SBP [5]: 207 mmHg
SBP difference value compared with the basic value [5]: (2.1 mmHg
SBP [6]: 208 mmHg
SBP difference value compared with the basic value [6]: (2.3 mmHg
AUC0-24h (area under blood pressure reduction-time curve) (Chl 0.36 mg/kg i.g. 8 days): −26.0 mmHg · h
maximum reduction of the blood pressure (Chl 0.36 mg/kg i.g. 8 days): −3.7 mmHg
SBP [7]: 205 mmHg
SBP difference value compared with the basic value [7]: (−0.6 mmHg
SBP [8]: 204 mmHg
SBP difference value compared with the basic value [8]: (−1.3 mmHg
SBP [9]: 204 mmHg
SBP difference value compared with the basic value [9]: (−1.3 mmHg
SBP [10]: 204 mmHg
SBP difference value compared with the basic value [10]: (−1.4 mmHg
SBP [11]: 205 mmHg
SBP difference value compared with the basic value [11]: (−0.4 mmHg
SBP [12]: 204 mmHg
SBP difference value compared with the basic value [12]: (−1.4 mmHg
AUC0-24h (area under blood pressure reduction-time curve) (Chl 0.54 mg/kg i.g. 8 days): −57.0 mmHg · h
maximum reduction of the blood pressure (Chl 0.54 mg/kg i.g. 8 days): −4.7 mmHg
AUC0-24h (area under blood pressure reduction-time curve) (Chl 0.72 mg/kg i.g. 8 days): −79.0 mmHg · h
maximum reduction of the blood pressure (Chl 0.72 mg/kg i.g. 8 days): −5.7 mmHg
time after administration at which an antihypertensive effect is seen (Chl 1.125 mg/kg): 4 h
AUC0-24h (area under blood pressure reduction-time curve) (Chl 1.125 mg/kg i.g. 8 days): −110.0 mmHg · h
maximum reduction of the blood pressure (Chl 1.125 mg/kg i.g. 8 days): −12.0 mmHg
SBP [13]: 205 mmHg
SBP difference value compared with the basic value [13]: (−2.9 mmHg
SBP [14]: 199 mmHg
SBP difference value compared with the basic value [14]: (−8.9 mmHg
SBP [15]: 201 mmHg
SBP difference value compared with the basic value [15]: (−6.3 mmHg
SBP [16]: 202 mmHg
SBP difference value compared with the basic value [16]: (−6.0 mmHg
SBP [17]: 207 mmHg
SBP difference value compared with the basic value [17]: (−0.4 mmHg
SBP [18]: 206 mmHg
SBP difference value compared with the basic value [18]: (−1.7 mmHg
period after administration with significant antihypertensive effect (Chl 2.25 mg/kg): 2 to 12 h
AUC0-24h (area under blood pressure reduction-time curve) (Chl 2.25 mg/kg i.g. 8 days): −199.0 mmHg · h
maximum reduction of the blood pressure (Chl 2.25 mg/kg i.g. 8 days): −15.0 mmHg
SBP [19]: 198 mmHg
SBP difference value compared with the basic value [19]: (−8.3 mmHg
SBP [20]: 192 mmHg
SBP difference value compared with the basic value [20]: (−11.3 mmHg
SBP [21]: 195 mmHg
SBP difference value compared with the basic value [21]: (−11.1 mmHg
SBP [22]: 197 mmHg
SBP difference value compared with the basic value [22]: (−9.4 mmHg
SBP [23]: 202 mmHg
SBP difference value compared with the basic value [23]: (−4.6 mmHg
SBP [24]: 205 mmHg
SBP difference value compared with the basic value [24]: (−1.3 mmHg
influence on the maximum reduction of SBP and the AUC compared with the blank control group (Chl 0.0675, 0.36, 0.54 and 0.72 mg/kg): no significant influence
influence on the maximum reduction of SBP and the AUC compared with the blank control group (Chl 1.125 and 2.25 mg/kg): significant decrease
SBP [25]: 202 mmHg
SBP difference value compared with the basic value [25]: (−2.0 mmHg
SBP [26]: 202 mmHg
SBP difference value compared with the basic value [26]: (−2.0 mmHg
SBP [27]: 201 mmHg
SBP difference value compared with the basic value [27]: (−3.7 mmHg
SBP [28]: 203 mmHg
SBP difference value compared with the basic value [28]: (−1.9 mmHg
SBP [29]: 202 mmHg
SBP difference value compared with the basic value [29]: (−2.6 mmHg
SBP [30]: 203 mmHg
SBP difference value compared with the basic value [30]: (−1.6 mmHg
SBP [31]: 203 mmHg
SBP difference value compared with the basic value [31]: (−3.9 mmHg
SBP [32]: 202 mmHg
SBP difference value compared with the basic value [32]: (−4.9 mmHg
SBP [33]: 202 mmHg
SBP difference value compared with the basic value [33]: (−4.9 mmHg
SBP [34]: 205 mmHg
SBP difference value compared with the basic value [34]: (−2.6 mmHg
SBP [35]: 205 mmHg
SBP difference value compared with the basic value [35]: (−2.4 mmHg
SBP [36]: 205 mmHg
SBP difference value compared with the basic value [36]: (−2.3 mmHg
